{"source": "patent US7241770B2", "about": "(priority 2003, dated 2007)", "key": {"[1]": {"test_system": "visceral hypersensitivity", "parameters": "species or system adult female Sprague Dawley rats", "conditions": "rat"}, "[2]": {"test_system": "normal colon transit", "parameters": "species or system male Sprague Dawley rats", "conditions": "rat"}, "[3]": {"test_system": "castor oil induced diarrhoea", "parameters": "species or system male NMRI mice", "conditions": "mouse, sc"}}, "note": "Read-outs that look alike come from different tables or passages of the source.", "data": [{"smiles": "CC1(C)C2CCC(CCN3CCC4(CC3)C(=O)NCN4c3ccccc3)C1C2", "note": "(stereo not shown) [Example 1, 8-[2-(6,6-Dimethyl-bicyclo[3.1.1]hept-2-yl)-ethyl]-1-phenyl-1,3,8-triaza-spiro[4.5]decan-4-one]", "values": [{"measurement": "In vivo agonism hypersensitivity max inhibition % of control", "setting": "[1]; sc", "result": "49 (s.c.) % of control"}]}, {"smiles": "CNCCCN1CN(c2ccccc2)C2(CCN(CCC3CCC4CC3C4(C)C)CC2)C1=O", "note": "(stereo not shown) [Example 13, 8-[2-(6,6-Dimethyl-bicyclo[3.1.1]hept-2-yl)-ethyl]-3-(3-methylamino-propyl)-1-phenyl-1,3,8-triaza-spiro[4.5]decan-4-one]", "values": [{"measurement": "In vivo agonism transit Mean retention time % control", "setting": "[2]; sc", "result": "105 (s.c.) % control"}, {"measurement": "In vivo agonism diarrhoea mean score % control", "setting": "[3]", "result": "59 (s.c.) % control"}]}, {"smiles": "CNCCCCN1CN(c2ccccc2)C2(CCN(CCC3CCC4CC3C4(C)C)CC2)C1=O", "note": "(stereo not shown) [Example 14]", "values": [{"measurement": "In vivo agonism transit Mean retention time % control", "setting": "[2]; sc", "result": "111 (s.c.) % control"}, {"measurement": "In vivo agonism diarrhoea mean score % control", "setting": "[3]", "result": "64 (s.c.) % control"}]}, {"smiles": "CN(CCCN1CN(c2ccccc2)C2(CCN(CCC3CCC4CC3C4(C)C)CC2)C1=O)CC1(O)CCNCC1", "note": "(stereo not shown) [Example 37, 8-[2-(6,6-Dimethyl-bicyclo[3.1.1]hept-2-yl)-ethyl]-3-{3-[(4-hydroxy-piperidin-4-ylmethyl)-methyl-amino]-propyl}-1-phenyl-1,3,8-triaza-spiro[4.5]decan-4-one]", "values": [{"measurement": "In vivo agonism hypersensitivity max inhibition % of control", "setting": "[1]; sc", "result": "34 (s.c.) % of control"}]}, {"smiles": "CN(CCN1CN(c2ccccc2)C2(CCN(CCC3CCC4CC3C4(C)C)CC2)C1=O)C(c1ccco1)C(O)CO", "note": "(stereo not shown) [Example 51]", "values": [{"measurement": "In vivo agonism transit Mean retention time % control", "setting": "[2]; po", "result": "105 (p.o.) % control"}, {"measurement": "In vivo agonism transit Mean retention time % control", "setting": "[2]; sc", "result": "102 (s.c.) % control"}, {"measurement": "In vivo agonism hypersensitivity max inhibition % of control", "setting": "[1]; po", "result": "44 (p.o.) % of control"}, {"measurement": "In vivo agonism hypersensitivity max inhibition % of control", "setting": "[1]; sc", "result": "45 (s.c.) % of control"}]}]}
